Among the test systems are SK-MEL-2 melanoma; HCC-2998 colon; HOP-92 NSCLC; SNB-19 CNS; U251 CNS; LOX IMVI melanoma; UACC-257 melanoma; A498 renal; OVCAR-3 ovarian; EKVX NSCLC.
Experiment in all cases: growth of human tumour cells (NCI), 48 h

SMILES strings stand for the structures. Values joined by “and” are separate entries in the source; they are usually repeats but may differ in a detail not shown here. Equal entries are not always repeated.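 Values below derive from 48-hour exposures of cells grown in 96-well plates, with endpoints linearly interpolated between the two concentrations bracketing the appropriate inhibition level. GI50 marks 50% less growth. TGI marks complete inhibition of growth.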

On to `Nc1nn(C(=O)Nc2ccc(Cc3ccccc3)cc2)c2ccc(Cl)cc12`, for which the GI50 in the experiment with SK-MEL-2 melanoma is 16.5 µM; with HCC-2998 colon, 0.211 µM; in the experiment on HOP-92 NSCLC, 13.4 µM; in the experiment on SNB-19 CNS, 18.1 µM; with U251 CNS it was 13 µM; in the experiment on LOX IMVI melanoma it was 0.137 µM. For the same molecule, the GI50 was 10.1 µM with UACC-257 melanoma, 15.9 µM in the experiment on A498 renal, 7.14 µM with OVCAR-3 ovarian and 5.85 µM in the experiment with EKVX NSCLC. Further, the TGI in the experiment on SK-MEL-2 melanoma was more than 100 µM; with HCC-2998 colon, 1.48 µM; with HOP-92 NSCLC, 42 µM; in the experiment with SNB-19 CNS it was 51.7 µM; with U251 CNS it was 29.1 µM; in the experiment with LOX IMVI melanoma it was 20.1 µM. Besides, the TGI in the experiment with UACC-257 melanoma was more than 100 µM; with A498 renal, 52.8 µM; in the experiment on OVCAR-3 ovarian, 21.6 µM; in the experiment with EKVX NSCLC, 98.8 µM.

As for `O=c1oc2c(Br)c(O)c(Br)cc2c2ccccc12`, the TGI with SK-MEL-2 melanoma came to 62.7 µM; with HCC-2998 colon, 72.4 µM; in the experiment on HOP-92 NSCLC, 74.6 µM; in the experiment on SNB-19 CNS, 93.4 µM; in the experiment on U251 CNS, 87.8 µM; in the experiment with LOX IMVI melanoma, 68.9 µM. Besides, the TGI with UACC-257 melanoma is 61.7 µM; in the experiment on A498 renal it was 58.5 µM; with OVCAR-3 ovarian it was 40.7 µM; in the experiment on EKVX NSCLC, 67.4 µM.

Regarding `O=C1C(CN(Cc2ccccc2)Cc2ccccc2)CCCC1CN(Cc1ccccc1)Cc1ccccc1` (stereo not given), the GI50 with SK-MEL-2 melanoma is 19.6 µM and > 69.9 µM; in the experiment with U251 CNS, 41.7 µM and > 100 µM; with LOX IMVI melanoma it was 14.1 µM and > 77.1 µM; in the experiment with UACC-257 melanoma, 27.9 µM and > 100 µM; in the experiment with OVCAR-3 ovarian, 29.6 µM and > 100 µM; with EKVX NSCLC, 36.8 µM and > 100 µM. Moreover, the TGI with SK-MEL-2 melanoma is 36 µM and > 100 µM; with HCC-2998 colon, more than 100 µM; with HOP-92 NSCLC, > 52.1 µM and 82.5 µM; in the experiment on SNB-19 CNS, more than 100 µM; in the experiment with U251 CNS, more than 100 µM; with LOX IMVI melanoma it was 28.3 µM and > 100 µM. The TGI is 49.1 µM and > 100 µM with UACC-257 melanoma; 77.2 µM and > 100 µM in the experiment with A498 renal; 46.8 µM and > 100 µM in the experiment on OVCAR-3 ovarian; 59.9 µM and > 100 µM with EKVX NSCLC.

As to `O=C(O)c1ccc([N+](=O)[O-])c(P(=O)(O)O)c1`, the TGI with SK-MEL-2 melanoma, with HOP-92 NSCLC, in the experiment on SNB-19 CNS, in the experiment on U251 CNS, in the experiment on LOX IMVI melanoma and with UACC-257 melanoma was more than 100 µM in each case. The TGI in the experiment on A498 renal, with OVCAR-3 ovarian and with EKVX NSCLC was more than 100 µM throughout.

As for `NC(=O)Cc1ccccc1Oc1nccc(-c2c(-c3ccc(F)cc3)ncn2C2CCNCC2)n1`, the GI50 in the experiment on SK-MEL-2 melanoma, with HCC-2998 colon, in the experiment with HOP-92 NSCLC, in the experiment on SNB-19 CNS, with U251 CNS and with LOX IMVI melanoma was more than 25 µM throughout. Also, the GI50 with UACC-257 melanoma, in the experiment with A498 renal, in the experiment on OVCAR-3 ovarian and in the experiment with EKVX NSCLC was more than 25 µM in each case. Further, the TGI with SK-MEL-2 melanoma, in the experiment with HCC-2998 colon, in the experiment on HOP-92 NSCLC, in the experiment with SNB-19 CNS, in the experiment with U251 CNS and in the experiment on LOX IMVI melanoma was more than 25 µM in each case. Further, the TGI with UACC-257 melanoma, in the experiment with A498 renal, with OVCAR-3 ovarian and with EKVX NSCLC was more than 25 µM each time.

Regarding `COC(=O)C1=C(C(=O)Nc2cccnc2)C2OC1(C(Cc1ccccc1)Oc1ccccc1)C1OC21` (stereo not given), the GI50 in the experiment with SK-MEL-2 melanoma is 12.9 µM; in the experiment on HCC-2998 colon, 14.7 µM; in the experiment on HOP-92 NSCLC it was 1.46 µM; in the experiment with SNB-19 CNS, 14.8 µM; in the experiment on U251 CNS, 10.7 µM; in the experiment with LOX IMVI melanoma, 1.83 µM. The GI50 in the experiment on UACC-257 melanoma is 1.85 µM; in the experiment with A498 renal it was 11.2 µM; in the experiment on OVCAR-3 ovarian, 1.78 µM; with EKVX NSCLC it was 11.8 µM. Also, the TGI was 25.9 µM in the experiment with SK-MEL-2 melanoma; 30.3 µM in the experiment with HCC-2998 colon; 3 µM with HOP-92 NSCLC; 28.8 µM in the experiment with SNB-19 CNS; 22.6 µM in the experiment on U251 CNS; 3.68 µM with LOX IMVI melanoma. In addition, the TGI in the experiment with UACC-257 melanoma was found to be 3.71 µM; in the experiment on A498 renal, 23.8 µM; in the experiment on OVCAR-3 ovarian, 3.2 µM; with EKVX NSCLC, 27.2 µM.

With `Cc1cc(N2CCOCC2)nc(N(CCNc2ccnc3cc(Cl)ccc23)Cc2ccco2)n1`, the GI50 with SK-MEL-2 melanoma was 2.14 µM; in the experiment on HCC-2998 colon it was 6.12 µM; with HOP-92 NSCLC, 2.1 µM; in the experiment on SNB-19 CNS, 6.49 µM; in the experiment with U251 CNS it was 3.21 µM; in the experiment on LOX IMVI melanoma, 2.03 µM. Further, the figures for the GI50 with UACC-257 melanoma, in the experiment with A498 renal and in the experiment on EKVX NSCLC were 3.41 µM, 2.47 µM and 12.7 µM, respectively. Also, the TGI was found to be 5.18 µM with SK-MEL-2 melanoma; 44.8 µM with HCC-2998 colon; 8.19 µM in the experiment with HOP-92 NSCLC; 48.1 µM in the experiment on SNB-19 CNS; 12.4 µM with U251 CNS; 4.91 µM with LOX IMVI melanoma. In addition, the figures for the TGI in the experiment on UACC-257 melanoma, in the experiment with A498 renal and in the experiment on EKVX NSCLC were 16.5 µM, 12.6 µM and 35.4 µM, respectively.

For the molecule `O=S1Cc2ccccc2CS1` (stereo not given), the TGI in the experiment with HCC-2998 colon was 93.2 µM; with HOP-92 NSCLC it was 34.1 µM; in the experiment on SNB-19 CNS, more than 100 µM; in the experiment on U251 CNS, 24.5 µM; with LOX IMVI melanoma, 21.3 µM; in the experiment on UACC-257 melanoma, 32 µM. For the same molecule, the TGI in the experiment on A498 renal was more than 100 µM; in the experiment on OVCAR-3 ovarian, 29 µM; in the experiment with EKVX NSCLC, 44.9 µM.

Turning to `Cc1ccc(/C=C/C(=O)c2sc(C(N)=S)nc2C)cc1`, the TGI with SK-MEL-2 melanoma, in the experiment with HCC-2998 colon, in the experiment on HOP-92 NSCLC, with U251 CNS, in the experiment with LOX IMVI melanoma and with UACC-257 melanoma was more than 100 µM each time. Besides, the TGI in the experiment with A498 renal, in the experiment with OVCAR-3 ovarian and in the experiment with EKVX NSCLC was more than 100 µM in each case.

With `Cc1cc(=O)[nH]c(CNC(=O)c2cccc3ccccc23)n1`, the TGI in the experiment on HCC-2998 colon, in the experiment with HOP-92 NSCLC, in the experiment with SNB-19 CNS, in the experiment with U251 CNS, in the experiment with LOX IMVI melanoma and with UACC-257 melanoma was more than 100 µM in each case. Besides, the TGI in the experiment with A498 renal, with OVCAR-3 ovarian and in the experiment with EKVX NSCLC was more than 100 µM throughout.

For the origin of these results see PubChem BioAssay (NCI).
